Results reported in paper PMC10855164, “Ligand-Based Design of Selective Peptidomimetic uPA and TMPRSS2 Inhibitors with Arg Bioisosteres” (International Journal of Molecular Sciences, 2024).
pKi: −log10 of the molar value.

Tests used:
matriptase [1] = target: T1, matriptase (Homo sapiens, UniProt Q9Y5Y6); test: fluorometric enzyme inhibition assay, matriptase (Boc-Leu-Arg-Arg-AMC); type: biochemical
T1 construct: catalytic domain of matriptase (uniport: Q9Y5Y6 aa 596–855); hexa-histidine (N); made in house; host or cells: Escherichia coli BL21 Gold (DE3)
T1 sequence (Q9Y5Y6 596-855): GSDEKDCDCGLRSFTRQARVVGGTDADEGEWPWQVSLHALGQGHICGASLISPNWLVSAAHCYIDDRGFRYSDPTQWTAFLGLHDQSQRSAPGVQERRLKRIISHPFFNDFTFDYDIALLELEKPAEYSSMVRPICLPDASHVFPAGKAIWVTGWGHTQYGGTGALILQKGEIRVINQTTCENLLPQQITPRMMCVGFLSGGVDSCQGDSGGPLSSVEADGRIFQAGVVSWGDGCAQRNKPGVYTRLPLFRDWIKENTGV
Description: (§1) The inhibitory activity of the synthesized compounds towards the respective main- and off-target proteases was measured via fluorometric and colorimetric assays. Thus, fluorogenic AMC- or colorimetric pNA-based substrates with a peptide sequence suitable for the tested protease were utilized (see Supplementary Figure S2). At first, the compounds were screened against […] proteases (uPA, TMPRSS2, matriptase, tPA, thrombin, factor Xa) at 20 µM, and a cut-off value of 80% inhibition at this concentration was set, for the differentiation between nonactive (n.a.) and active inhibitors. Due to the reversible inhibition mechanism of the ketobenzothiazole derivates, the IC50 values were determined with Graphpad Prism 9, and afterwards converted to the corresponding Ki values for an adequate comparison between the inhibitory activities of the compounds toward all tested proteases. The Ki values were calculated using the Cheng–Prusoff equation [43].
(§2) Fluorometric inhibition assays
(§3) The inhibitory activities of the compounds against the proteases were determined by enzyme inhibition assays with fluorogenic or colorimetry-based substrates. The fluorescence, caused by cleaved AMC from the fluorogenic substrates (uPA, matriptase, TMPRSS2, thrombin), was measured in white flat-bottom 96-well plates from Greiner Bio-One using a Tecan Infinite F200 Pro plate reader. The absorption, caused by cleaved pNA from colorimetric substrates (factor Xa and tPA), was measured in transparent flat-bottom 96-well plates from Greiner Bio-One using a Tecan Spark 10M plate reader. All measurements with the main-target proteases (uPA and TMRPSS2) were performed as triplicates and with the off-target proteases (matriptase, factor Xa, tPA, thrombin) as duplicates. The substrates and the compounds were prepared as stock solutions in DMSO. Each well contained a total volume of 200 µL, consisting of 185 µL buffer, 5 µL inhibitor in DMSO or pure DMSO as negative control, 5 µL substrate in DMSO and 5 µL enzyme solution in buffer. Dilution series were prepared for the determination of the inhibition constants. The fluorescence signal and absorbance were measured every 30 s for 10 min at 25 or 37 °C with the corresponding excitation/emission (λex = 380 nm / λem = 460 nm) and absorbance (λabs = 405 nm) wavelengths, depending on the targeted protease. IC50 values for the reversible inhibitors were calculated with Graphpad Prism 9 by fitting the remaining enzymatic activity to the four parameter IC50 equation with Y [%] as the residual enzyme activity , Ymax as the maximum value of the dose response curve at inhibitor concentrations [I] = 0 µM, Ymin as the minimum value at high inhibitor concentrations and s as the hill coefficient.[1] The fluorescence progress curves and sigmoidal dose-response curve for inhibition of uPa by compound 38 is shown exemplary in Figure S2. […]
(§4) Due to the dependence of the IC50 value on the substrate affinity and concentration, the Ki values were calculated with the Cheng-Prusoff equation, using the final substrate concentration [S] and the Michaelis-Menten constant KM, (2) for appropriate comparison of the inhibitory activities to the other enzymes and inhibitors.[1]
(§5) KM values were determined by fitting to the Michaelis-Menten equation using Graphpad Prism 9 with v [ΔF/min] as the substrate hydrolysis rate, vmax as the maximum slope of the dose-response curve, and the substrate [S] concentration.[1] The different substrates were serially diluted in DMSO. The measurement was done in analogy to the determination of the inhibitory activity, but with 5 µL pure DMSO instead of inhibitor solution. […]
(§6) The following buffers and substrates were used for the respective assays: uPA (50 mM Tris HCl pH = 7.9, 150 mM […]
(§7) TMPRSS2 (25 mM Tris HCl pH = 8.0, 150 mM NaCl, 5 mM CaCl2, 0.001% TX-100, 100 µM Boc-Gln-Ala-Arg-AMC (KM: 68.63 ± 6.64 µM), 25 °C, 3 nM TMPRSS2)[3]; matriptase (50 mM Tris HCl pH = 8.0, 150 mM NaCl, 5 mM CaCl2, […]

thrombin [2] = target: T2, thrombin (Homo sapiens, UniProt P00734); test: fluorometric enzyme inhibition assay, thrombin (Z-Gly-Gly-Arg-AMC); type: biochemical
T2 construct: purchased Bio-techne
Description: as §1, §2, §3, §4, §5, §6, §7

factor Xa [3] = target: T3, factor Xa (Homo sapiens, UniProt P00742); test: colorimetric enzyme inhibition assay, factor Xa (Z-D-Arg-Gly-Arg-pNA); type: biochemical
T3 construct: purchased Bio-techne
T3 sequence (P00742 235-488 limits assumed): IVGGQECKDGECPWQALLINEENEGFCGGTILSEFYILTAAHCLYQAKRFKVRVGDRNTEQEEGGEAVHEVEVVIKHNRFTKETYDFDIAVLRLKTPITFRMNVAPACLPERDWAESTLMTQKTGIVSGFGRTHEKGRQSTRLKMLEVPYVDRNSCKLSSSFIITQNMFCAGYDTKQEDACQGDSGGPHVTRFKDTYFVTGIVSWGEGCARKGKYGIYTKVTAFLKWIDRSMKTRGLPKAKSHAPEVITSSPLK
T3 sequence (P00742 41-179 partner limits assumed): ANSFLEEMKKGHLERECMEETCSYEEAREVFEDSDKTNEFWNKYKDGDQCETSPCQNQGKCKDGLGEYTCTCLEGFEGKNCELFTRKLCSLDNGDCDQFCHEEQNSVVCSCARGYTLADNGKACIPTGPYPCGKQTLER
Description: as §1, §2, §3, §4, §5, §6, §7

TMPRSS2 [4] = target: T4, TMPRSS2 (Homo sapiens, UniProt O15393); design: method as in PMID 35804152; conditions: published inhibitor; cited from earlier work
T4 construct: purchased Cusabio
T4 sequence (O15393 whole entry): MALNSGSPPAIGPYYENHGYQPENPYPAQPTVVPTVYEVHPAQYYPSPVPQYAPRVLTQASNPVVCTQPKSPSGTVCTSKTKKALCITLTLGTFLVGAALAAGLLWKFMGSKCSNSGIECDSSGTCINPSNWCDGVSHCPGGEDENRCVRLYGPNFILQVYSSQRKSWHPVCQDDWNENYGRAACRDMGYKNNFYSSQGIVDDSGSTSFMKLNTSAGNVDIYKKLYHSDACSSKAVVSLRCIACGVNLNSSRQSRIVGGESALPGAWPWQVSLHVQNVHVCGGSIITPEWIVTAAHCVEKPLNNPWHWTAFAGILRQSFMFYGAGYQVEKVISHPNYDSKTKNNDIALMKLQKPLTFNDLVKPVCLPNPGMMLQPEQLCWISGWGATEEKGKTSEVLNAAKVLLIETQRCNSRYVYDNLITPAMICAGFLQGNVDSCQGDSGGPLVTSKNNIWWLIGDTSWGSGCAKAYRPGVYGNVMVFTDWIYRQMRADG

matriptase [5] = target: T1, matriptase; design: method as in PMID 35804152; conditions: published inhibitor; cited from earlier work
thrombin [6] = target: T2, thrombin; design: method as in PMID 35804152; conditions: published inhibitor; cited from earlier work
factor Xa [7] = target: T3, factor Xa; design: method as in PMID 35804152; conditions: published inhibitor; cited from earlier work
uPA = target: T5, uPA (Homo sapiens, UniProt P00749); test: fluorometric enzyme inhibition assay, uPA (Z-Gly-Gly-Arg-AMC); type: biochemical; conditions: from IC50 by Cheng-Prusoff; n.a. = not active, <80% inhibition at 20 µM
T5 construct: purchased Sigma Aldrich
Description: as §1, §2
The inhibitory activities of the compounds against the proteases were determined by enzyme inhibition assays with fluorogenic or colorimetry-based substrates. The fluorescence, caused by cleaved AMC from the fluorogenic substrates (uPA, matriptase, TMPRSS2, thrombin), was measured in white flat-bottom 96-well plates from Greiner Bio-One using a Tecan Infinite F200 Pro plate reader. The absorption, caused by cleaved pNA from colorimetric substrates (factor Xa and tPA), was measured in transparent flat-bottom 96-well plates from Greiner Bio-One using a Tecan Spark 10M plate reader. All measurements with the main-target proteases (uPA and TMRPSS2) were performed as triplicates and with the off-target proteases (matriptase, factor Xa, tPA, thrombin) as duplicates. The substrates and the compounds were prepared as stock solutions in DMSO. Each well contained a total volume of 200 µL, consisting of 185 µL buffer, 5 µL inhibitor in DMSO or pure DMSO as negative control, 5 µL substrate in DMSO and 5 µL enzyme solution in buffer. Dilution series were prepared for the determination of the inhibition constants. The fluorescence signal and absorbance were measured every 30 s for 10 min at 25 or 37 °C with the corresponding excitation/emission (λex = 380 nm / λem = 460 nm) and absorbance (λabs = 405 nm) wavelengths, depending on the targeted protease. IC50 values for the reversible inhibitors were calculated with Graphpad Prism 9 by fitting the remaining enzymatic activity to the four parameter IC50 equation with Y [%] as the residual enzyme activity , Ymax as the maximum value of the dose response curve at inhibitor concentrations [I] = 0 µM, Ymin as the minimum value at high inhibitor concentrations and s as the hill coefficient.[1] The fluorescence progress curves and sigmoidal dose-response curve for inhibition of uPa by compound 38 is shown exemplary in Figure S2.
Figure S2: (left) Fluorescence progress curves for inhibition of uPa by cpd. 38. (right) Plot showing the respective IC50 value […]
as §4
KM values were determined by fitting to the Michaelis-Menten equation using Graphpad Prism 9 with v [ΔF/min] as the substrate hydrolysis rate, vmax as the maximum slope of the dose-response curve, and the substrate [S] concentration.[1] The different substrates were serially diluted in DMSO. The measurement was done in analogy to the determination of the inhibitory activity, but with 5 µL pure DMSO instead of inhibitor solution. The fluorescence progress curves and Michaelis-Menten curve of the specific substrate of uPA is shown exemplarily […]
Figure S3: (left) Fluorescence progress curves of cleavage of Z-Gly-Gly-Arg-AMC by uPA. (right) Michaelis-Menten curve […]

TMPRSS2 [8] = target: T4, TMPRSS2; test: fluorometric enzyme inhibition assay, TMPRSS2 (Boc-Gln-Ala-Arg-AMC); type: biochemical; conditions: from IC50 by Cheng-Prusoff; n.a. = not active, <80% inhibition at 20 µM
Description: as §1, §2, §3, §4, §5, §6, §7

tPA = target: T6, tPA (Homo sapiens, UniProt P00750); test: colorimetric enzyme inhibition assay, tPA (N-methylsulfonyl-D-Phe-Gly-Arg-pNA); type: biochemical; conditions: from IC50 by Cheng-Prusoff; n.a. = not active, <80% inhibition at 20 µM
T6 construct: purchased Sigma Aldrich
T6 sequence (P00750 36-562): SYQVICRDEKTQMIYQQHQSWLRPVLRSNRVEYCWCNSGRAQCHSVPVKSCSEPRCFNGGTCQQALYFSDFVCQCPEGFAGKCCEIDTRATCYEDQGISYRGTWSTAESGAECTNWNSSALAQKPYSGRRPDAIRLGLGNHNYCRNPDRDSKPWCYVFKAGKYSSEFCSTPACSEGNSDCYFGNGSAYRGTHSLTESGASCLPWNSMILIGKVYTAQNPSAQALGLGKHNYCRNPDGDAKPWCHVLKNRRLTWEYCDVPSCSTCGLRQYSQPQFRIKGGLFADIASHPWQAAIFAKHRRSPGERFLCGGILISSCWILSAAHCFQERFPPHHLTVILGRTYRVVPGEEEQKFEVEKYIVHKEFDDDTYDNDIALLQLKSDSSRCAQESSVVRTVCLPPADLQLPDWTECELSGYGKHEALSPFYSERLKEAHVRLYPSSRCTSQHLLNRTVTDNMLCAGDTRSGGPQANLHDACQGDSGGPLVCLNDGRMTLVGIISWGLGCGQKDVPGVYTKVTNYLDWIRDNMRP
Description: as §1, §2, §3, §4
KM values were determined by fitting to the Michaelis-Menten equation using Graphpad Prism 9 with v [ΔF/min] as the substrate hydrolysis rate, vmax as the maximum slope of the dose-response curve, and the substrate [S] concentration.[1] The different substrates were serially diluted in DMSO. […]

[9] = from IC50 by Cheng-Prusoff, n.a. = not active, <80% inhibition at 20 µM

| SMILES | Selectivity index [SI] Matriptase (matriptase [1]; quotient Ki matriptase / Ki TMPRSS2, from cited Ki values (ref 29)) | Selectivity index [SI] Thrombin (thrombin [2]; quotient Ki thrombin / Ki TMPRSS2, from cited Ki values (ref 29)) | Selectivity index [SI] Factor Xa (factor Xa [3]; quotient Ki factor Xa / Ki TMPRSS2, from cited Ki values (ref 29)) | pKi (TMPRSS2 [4]) | pKi (matriptase [5]) | pKi (thrombin [6]) | pKi (factor Xa [7]) | Ki uPA (uPA) | Ki TMPRSS2 (TMPRSS2 [8]) | Ki Matriptase (matriptase [1]; [9]) | Ki tPA (tPA) | Ki Thrombin (thrombin [2]; [9]) | Ki Factor Xa (factor Xa [3]; [9]) |
| --- | --- | --- | --- | --- | --- | --- | --- | --- | --- | --- | --- | --- | --- |
| CC(=O)N[C@@H](CC(N)=O)C(=O)N1CCC[C@H]1C(=O)N[C@@H](CCCNC(=N)N)C(=O)c1nc2ccccc2s1 [Ac-L-Asn-L-Pro-L-Arg-kbt] | 2 | 418 | 16 | 8.60 | 8.28 | 5.98 | 7.39 | – | – | – | – | – | – |
| CC(=O)NCC(=O)N[C@H](C(=O)N[C@@H](C)C(=O)N[C@@H](Cc1cccc(NC(=N)N)c1)C(=O)c1nc2ccccc2s1)[C@H](C)O [Compound 45] | – | – | – | – | – | – | – | did not show inhibition | did not show inhibition | did not show inhibition | did not show inhibition | did not show inhibition | did not show inhibition |
